Assay results as given in the NIST ThermoML archive (doi:10.1016/j.tca.2015.03.003).
Numbers after ± are expanded uncertainties.

Details: Crystal; DTA

Row | Normal melting temperature [°C] | Compound
1 | 771.1 ± 4 | [Cl-].[K+] [potassium chloride]
2 | 801.1 ± 4 | [Cl-].[Na+] [sodium chloride]
